Source: paper PMC1871596, “Requirement of aggregation propensity of Alzheimer amyloid peptides for neuronal cell surface binding” (BMC Neuroscience, 2007)

B1: trypsin: protease (9590 units/mg) used to remove cell surface proteins from PC12 cells (protein, UniProt P00760 24-246, looked up)
Serine protease 1: IVGGYTCGANTVPYQVSLNSGYHFCGGSLINSQWVVSAAHCYKSGIQVRLGEDNINVVEGNEQFISASKSIVHPSYNSNTLNNDIMLIKLKSAASLNSRVASISLPTSCASAGTQCLISGWGNTKSSGTSYPDVLKCLKAPILSDSSCKSAYPGQITSNMFCAGYLEGGKDSCQGDSGGPVVCSGKLQGIVSWGSGCAQKNKPGVYTKVCNYVSWIKQTIASN

What was measured:
[1] = unlabelled mutant; cited from earlier work
Source text: We also studied a double mutant (F19S/L34P) of Aβ42 (hereon referred to as 'mutant peptide'), which was discovered through a GFP-based screen for mutations that reduce the aggregation p ...

[2] = system: NGF differentiated PC12 cells; assay: Blocking the binding of Aβ42 to the surface of live PC12 cells (flow cytometry); format: cell-based, rat; conditions: cells pre-treated with the reagent, then TMR-labelled Aβ42 1.5 μM for 1-2 hours, trypsin 10 μg/mL 15 min then SBTI, Figure 6A
Procedure: NGF differentiated PC12 cells treated with Aβ (1.5 μM) were washed once with cold D-PBS, followed by mechanical detachment with D-PBS. Collected cells were centrifuged (200 × g for 1 minute) and resuspended in cold flow buffer containing 5 mM EDTA and 1% BSA (Fisher Scientific, Nepean, ON) in D-PBS. Samples were immediately analyzed with a FACS Calibur flow cytometer (Becton Dickinson, Mississauga, ON). TMR-labelled samples were detected with 585/42 filter collecting 5 × 10^4 events per sample using 100–300 events/s flow rate. Cell viability was assessed with 25 μg/mL 7-Aminoactinomycin D (7-AAD) treatment for 5 minutes and detected with a long pass 650 nm filter. Data collection and analysis were performed using Cell Quest version 3.3 and figures were created using WinMDI version 2.8 software.
Various treatments to block or remove lipid, carbohydrate, or protein components from the surface of live PC12 cells were performed and their effects on Aβ binding was examined. NGF differentiated PC12 cells were treated with 100 ng/mL FITC labelled annexin V (to block negatively charged phospholipids) or 10 μg/mL FITC labelled cholera toxin subunit B (to block GM1 ganglioside) for 20 minutes before addition of Aβ42 (final concentration 1.5 μM) for two hours. […] After Aβ42 addition, treated cells and untreated control cells were analyzed using flow cytometry.

Molecule	aggregation state of the mutant [1]	effect of cell surface treatment on Aβ42 binding [2]
DAEFRHDSGYEVHHQKLVSFAEDVGSNKGAIIGPMVGGVVIA [double mutant (F19S/L34P) of Aβ42, double mutant (F19S/L34P) of Aβ42 with reduced aggregation propensity, unlabelled]	soluble unstructured monomeric peptide	–
B1	–	significantly decreased
